In patent US8829007B2 (priority 2009, dated 2014):
Where a name gives a salt, the structure may show the parent alone. Read-outs that look alike come from different tables or passages of the source.

Experiments:
[1] = test system: influenza A virus (A/PR/8/34); experiment: microbe, parasite or virus in culture; format: cell-based
[2] = test system: A/PR/8/34 influenza virus; experiment: microbe, parasite or virus in culture; format: cell-based
[3] = Influenza A virus, PR/8, MDCK, CPE assay, A/PR/8/34 infected MDCK cells, class symbols, read-out: IC50 (mean all)
[4] = Influenza A virus, PR/8, MDCK, bDNA assay, A/PR/8/34 influenza virus replication in MDCK cells, class symbols, read-out: EC50 (mean all)
[5] = CPE assay, A/PR/8/34 infected MDCK cells, class symbols, read-out: IC50 (mean all)
[6] = bDNA assay, A/PR/8/34 influenza virus replication in MDCK cells, class symbols, read-out: EC50 (mean all)
[7] = mean all, MDCK cells infected with A/PR/8/34, cell protection (CPE), read-out: IC50
[8] = mean all, bDNA viral RNA in MDCK cells infected with A/PR/8/34, read-out: EC50

SMILES | IC50 [1, 3] [µM] | EC50 [2, 4] [µM] | IC50 [1, 7] [µM] | EC50 [2, 8] [µM] | other results
O[C@H]1[C@@H](O)CCC[C@H]1Nc1nc(-c2c[nH]c3ncc(Cl)cc23)ncc1F [Compound 631] | < 5 | < 5 | – | – | –
O[C@@H]1[C@H](O)CCC[C@@H]1Nc1nc(-c2c[nH]c3ncc(Cl)cc23)ncc1F [Compound 632] | < 5 | < 5 | – | – | –
O=C(N[C@@H]1CCC[C@H](Nc2nc(-c3c[nH]c4ncc(Cl)cc34)ncc2F)C1)C1CCCOC1 (stereo partly drawn) [Compound 633, N-[(1R,3S)-3-[[2-(5-chloro-1H-pyrrolo[2,3-b]pyridin-3-yl)-5-fluoro-pyrimidin-4-yl]amino]cyclohexyl]tetrahydropyran-3-carboxamide hydrochloride] | < 5 | < 5 | – | – | –
O=C(CCO)N[C@@H]1CCC[C@H](Nc2nc(-c3c[nH]c4ncc(Cl)cc34)ncc2F)C1 [Compound 634, N-[(1R,3S)-3-[[2-(5-chloro-1H-pyrrolo[2,3-b]pyridin-3-yl)-5-fluoro-pyrimidin-4-yl]amino]cyclohexyl]-3-hydroxy-propanamide hydrochloride] | < 5 | < 5 | – | – | –
CC1(C(=O)N[C@@H]2CCC[C@H](Nc3nc(-c4c[nH]c5ncc(Cl)cc45)ncc3F)C2)COC1 [Compound 635, N-[(1R,3S)-3-[[2-(5-chloro-1H-pyrrolo[2,3-b]pyridin-3-yl)-5-fluoro-pyrimidin-4-yl]amino]cyclohexyl]-3-methyl-oxetane-3-carboxamide hydrochloride] | < 5 | < 5 | – | – | –
O=C(N[C@@H]1CCC[C@H](Nc2nc(-c3c[nH]c4ncc(Cl)cc34)ncc2F)C1)C1CCOCC1 [Compound 636, N-[(1R,3S)-3-[[2-(5-chloro-1H-pyrrolo[2,3-b]pyridin-3-yl)-5-fluoro-pyrimidin-4-yl]amino]cyclohexyl]tetrahydropyran-4-carboxamide hydrochloride] | < 5 | < 5 | – | – | –
O=C(N[C@@H]1CCC[C@H](Nc2nc(-c3c[nH]c4ncc(Cl)cc34)ncc2F)C1)C1CNCCO1 (stereo partly drawn) [Compound 637, N-[(1R,3S)-3-[[2-(5-chloro-1H-pyrrolo[2,3-b]pyridin-3-yl)-5-fluoro-pyrimidin-4-yl]amino]cyclohexyl]morpholine-2-carboxamide bishydrochloride] | < 5 | < 5 | – | – | –
O=C(N[C@@H]1CCC[C@H](Nc2nc(-c3c[nH]c4ncc(Cl)cc34)ncc2F)C1)C1CCCO1 (stereo partly drawn) [Compound 638, N-[1R,3S)-3-[[2-(5-chloro-1H-pyrrolo[2,3-b]pyridin-3-yl)-5-fluoro-pyrimidin-4-yl]amino]cyclohexyl]tetrahydrofuran-2-carboxamide hydrochloride] | < 5 | < 5 | – | – | –
O=C(N[C@@H]1CCC[C@H](Nc2nc(-c3c[nH]c4ncc(Cl)cc34)ncc2F)C1)C1CCNCC1 [Compound 639, N-[(1R,3S)-3-[[2-(5-chloro-1H-pyrrolo[2,3-b]pyridin-3-yl)-5-fluoro-pyrimidin-4-yl]amino]cyclohexyl]piperidine-4-carboxamide bishydrochloride] | – | – | – | – | IC50 ([1]; Influenza A virus, PR/8, MDCK, read-out: IC50 (mean all)): > 10 µM; EC50 ([2]; Influenza A virus, PR/8, MDCK, read-out: EC50 (mean all)): > 3.3 µM
CC(O)CC(=O)N[C@@H]1CCC[C@H](Nc2nc(-c3c[nH]c4ncc(Cl)cc34)ncc2F)C1 (stereo partly drawn) [Compound 640, N-[(1R,3S)-3-[[2-(5-chloro-1H-pyrrolo[2,3-b]pyridin-3-yl)-5-fluoro-pyrimidin-4-yl]amino]cyclohexyl]-3-hydroxy-butanamide hydrochloride] | < 5 | < 5 | – | – | –
CC(O)C(=O)N[C@@H]1CCC[C@H](Nc2nc(-c3c[nH]c4ncc(Cl)cc34)ncc2F)C1 (stereo partly drawn) [Compound 642, N-[(1R,3S)-3-[[2-(5-chloro-1H-pyrrolo[2,3-b]pyridin-3-yl)-5-fluoro-pyrimidin-4-yl]amino]cyclohexyl]-2-hydroxy-propanamide hydrochloride] | < 5 | < 5 | – | – | –
OCC1(O)CCCC(Nc2nc(-c3c[nH]c4ncc(Cl)cc34)ncc2F)C1 (centres unmarked) [Compound 646] | < 5 | < 5 | – | – | –
O=C(N[C@@H]1CCC[C@H](Nc2nc(-c3c[nH]c4ncc(Cl)cc34)ncc2F)C1)N1CCOCC1 [Compound 647] | < 5 | < 5 | – | – | –
O=C(N[C@@H]1CCC[C@H](Nc2nc(-c3c[nH]c4ncc(Cl)cc34)ncc2F)C1)OCC1CCOC1 (some centres unmarked) [Compound 648] | < 5 | < 5 | – | – | –
O=C(N[C@@H]1CCC[C@H](Nc2nc(-c3c[nH]c4ncc(Cl)cc34)ncc2F)C1)O[C@H]1CCOC1 [Compound 649] | < 5 | < 5 | – | – | –
CC(C)(CO)C(=O)N[C@@H]1CCC[C@H](Nc2nc(-c3c[nH]c4ncc(Cl)cc34)ncc2F)C1 [Compound 650, N-[(1R,3S)-3-[[2-(5-chloro-1H-pyrrolo[2,3-b]pyridin-3-yl)-5-fluoro-pyrimidin-4-yl]amino]cyclohexyl]-3-hydroxy-2,2-dimethyl-propanamide hydrochloride] | < 5 | < 5 | – | – | –
O=C(N[C@@H]1CCC[C@H](Nc2nc(-c3c[nH]c4ncc(Cl)cc34)ncc2F)C1)C1CCCCO1 (stereo partly drawn) [Compound 651, N-[(1R,3S)-3-[[2-(5-chloro-1H-pyrrolo[2,3-b]pyridin-3-yl)-5-fluoro-pyrimidin-4-yl]amino]cyclohexyl]tetrahydropyran-2-carboxamide hydrochloride] | < 5 | < 5 | – | – | –
O=C(N[C@@H]1CCC[C@H](Nc2nc(-c3c[nH]c4ncc(Cl)cc34)ncc2F)C1)C1CCOC1 (stereo partly drawn) [Compound 652, N-[(1R,3S)-3-[[2-(5-chloro-1H-pyrrolo[2,3-b]pyridin-3-yl)-5-fluoro-pyrimidin-4-yl]amino]cyclohexyl]tetrahydrofuran-3-carboxamide hydrochloride] | < 5 | < 5 | – | – | –
N#Cc1cnc(-c2c[nH]c3ncc(Cl)cc23)nc1N[C@H]1CCCN(CC(N)=O)C1 [Compound 654] | 5 to 20 | 5 to 10 | – | – | –
Cc1ccc(S(=O)(=O)n2cc(-c3ncc(F)c(N[C@H]4CCCC(C)(O)C4)n3)c3cc(Cl)cnc32)cc1 (some centres unmarked) [Compound 655] | – | – | – | – | IC50 [1, 5]: < 5 µM; EC50 [2, 6]: < 5 µM
Cc1ccc(S(=O)(=O)n2cc(-c3ncc(F)c(N[C@H]4CCCC(C)(O)C4)n3)c3cc(Cl)cnc32)cc1 (some centres unmarked) [Compound 656] | – | – | – | – | IC50 [1, 5]: < 5 µM; EC50 [2, 6]: < 5 µM
OC[C@H]1CC(Nc2nc(-c3c[nH]c4ncc(Cl)cc34)ncc2F)[C@H](O)[C@@H]1O (some centres unmarked) [Compound 657] | > 10 | > 3.3 | – | – | –

SMILES | IC50 [1, 3] [µM] | EC50 [2, 4] [µM] | IC50 [1, 7] [µM] | EC50 [2, 8] [µM] | other results
O=C(C1CCCCO1)N1CCCC(Nc2nc(-c3c[nH]c4ncc(Cl)cc34)ncc2F)C1 (centres unmarked) [Compound 658] | – | – | – | – | IC50 [1, 5]: < 5 µM; EC50 [2, 6]: < 5 µM
O=C(C1CCCO1)N1CCCC(Nc2nc(-c3c[nH]c4ncc(Cl)cc34)ncc2F)C1 (centres unmarked) [Compound 660] | – | – | – | – | IC50 [1, 5]: < 5 µM; EC50 [2, 6]: < 5 µM
N#Cc1cnc2[nH]cc(-c3ncc(F)c(NC4CCCN(CC(N)=O)C4)n3)c2c1 (centres unmarked) [Compound 661] | – | – | – | – | IC50 [1, 5]: < 5 µM; EC50 [2, 6]: < 5 µM
Fc1cnc(-c2c[nH]c3ncc(Cl)cc23)nc1NC1CCCN(CC2CCCCO2)C1 (centres unmarked) [Compound 663] | – | – | – | – | IC50 [1, 5]: < 5 µM; EC50 [2, 6]: < 5 µM
N#CCN1CCC[C@H](Nc2nc(-c3c[nH]c4ncc(Cl)cc34)ncc2F)C1 [Compound 669] | < 5 | < 5 | – | – | –
CCOC(=O)C1=CC(Nc2nc(-c3c[nH]c4ncc(Cl)cc34)ncc2F)[C@@H](NC(C)=O)[C@H](OC(CC)CC)C1 (some centres unmarked) [Compound 670] | > 10 | > 3.3 | – | – | –
CCC(CC)O[C@@H]1CC(C(=O)O)=CC(Nc2nc(-c3c[nH]c4ncc(Cl)cc34)ncc2F)[C@H]1NC(C)=O (some centres unmarked) [Compound 671] | > 10 | > 3.3 | – | – | –
CC(C)(O)c1nc(-c2c[nH]c3ncc(Cl)cc23)nc(NC2CCCCC2C(=O)O)c1F (centres unmarked) [Compound 673] | – | – | < 5 | < 5 | –
Nc1nc(-c2c[nH]c3ncc(Cl)cc23)nc(NC2CCCCC2C(=O)O)c1F (centres unmarked) [Compound 674] | – | – | < 5 | < 5 | –
COC(=O)c1cnc2[nH]cc(-c3ncc(F)c(NC4CCCN(CC(N)=O)C4)n3)c2c1 (centres unmarked) [Compound 675] | – | – | > 10 | > 3.3 | –
Fc1cnc(-c2c[nH]c3ncc(Cl)cc23)nc1NC1CCCN(CC2CCCOC2)C1 (centres unmarked) [Compound 676] | – | – | < 5 | < 5 | –
CC1(C(=O)O)CCCCC1Nc1nc(-c2c[nH]c3ncc(Cl)cc23)ncc1F (centres unmarked) [Compound 677] | – | – | < 5 | < 5 | –
CC1(C(=O)O)CCCCC1Nc1nc(-c2c[nH]c3ncc(F)cc23)ncc1F (centres unmarked) [Compound 678] | – | – | < 5 | < 5 | –
CC(C)(O)C(=O)NC1CCCC(Nc2nc(-c3c[nH]c4ncc(Cl)cc34)ncc2F)C1 (centres unmarked) [Compound 681] | – | – | < 5 | < 5 | –
CC1(C(=O)NC2CCCC(Nc3nc(-c4c[nH]c5ncc(Cl)cc45)ncc3F)C2)CCCO1 (centres unmarked) [Compound 682] | – | – | < 5 | < 5 | –
CCC(=O)NC1CCCC(Nc2nc(-c3c[nH]c4ncc(Cl)cc34)ncc2F)C1 (centres unmarked) [Compound 683] | – | – | < 5 | < 5 | –
O=C(NC1CCCC(Nc2nc(-c3c[nH]c4ncc(Cl)cc34)ncc2F)C1)C1CC1 (centres unmarked) [Compound 684] | – | – | < 5 | < 5 | –
CC(C)C(=O)NC1CCCC(Nc2nc(-c3c[nH]c4ncc(Cl)cc34)ncc2F)C1 (centres unmarked) [Compound 685] | – | – | < 5 | < 5 | –
O=C(O)C1CCCCC1Nc1nc(-c2c[nH]c3ncc(Cl)cc23)nc(C(O)CO)c1F (centres unmarked) [Compound 687] | – | – | < 5 | > 3.3 | –
COC(=O)NC1CCCC(Nc2nc(-c3c[nH]c4ncc(Cl)cc34)nc(C(C)(C)C)c2F)C1 (centres unmarked) [Compound 688] | – | – | < 5 | < 5 | –
COP(=O)(CN1CCC[C@H](Nc2nc(-c3c[nH]c4ncc(Cl)cc34)ncc2F)C1)OC [Compound 690] | – | – | – | – | IC50 ([1]; Influenza A virus, PR/8, MDCK, read-out: IC50): < 5 µM; EC50 ([2]; Influenza A virus, PR/8, MDCK): < 5 µM
